Measurements: ChEMBL document CHEMBL5212743, “Selectivity Literature for EUbOPEN Chemogenomics Library wave 3” (2023)
Values belong to the compound of their own block, whether it stands above or below them.

What was measured:
[1] = target: Sodium-dependent noradrenaline transporter (Homo sapiens, UniProt P23975); test: Selectivity interaction (PSP Principial panel 20118+ (panel of GPCRs, transporter, and ion channels)) EUB0000283b SLC6A2
[2] = target: T1, YEATS domain-containing protein 2 (Homo sapiens, UniProt Q9ULM3); test: Selectivity interaction (Bromodomain panel (TR-FRET assay)) EUB0000283b YEATS2
T1 sequence (Q9ULM3 whole entry): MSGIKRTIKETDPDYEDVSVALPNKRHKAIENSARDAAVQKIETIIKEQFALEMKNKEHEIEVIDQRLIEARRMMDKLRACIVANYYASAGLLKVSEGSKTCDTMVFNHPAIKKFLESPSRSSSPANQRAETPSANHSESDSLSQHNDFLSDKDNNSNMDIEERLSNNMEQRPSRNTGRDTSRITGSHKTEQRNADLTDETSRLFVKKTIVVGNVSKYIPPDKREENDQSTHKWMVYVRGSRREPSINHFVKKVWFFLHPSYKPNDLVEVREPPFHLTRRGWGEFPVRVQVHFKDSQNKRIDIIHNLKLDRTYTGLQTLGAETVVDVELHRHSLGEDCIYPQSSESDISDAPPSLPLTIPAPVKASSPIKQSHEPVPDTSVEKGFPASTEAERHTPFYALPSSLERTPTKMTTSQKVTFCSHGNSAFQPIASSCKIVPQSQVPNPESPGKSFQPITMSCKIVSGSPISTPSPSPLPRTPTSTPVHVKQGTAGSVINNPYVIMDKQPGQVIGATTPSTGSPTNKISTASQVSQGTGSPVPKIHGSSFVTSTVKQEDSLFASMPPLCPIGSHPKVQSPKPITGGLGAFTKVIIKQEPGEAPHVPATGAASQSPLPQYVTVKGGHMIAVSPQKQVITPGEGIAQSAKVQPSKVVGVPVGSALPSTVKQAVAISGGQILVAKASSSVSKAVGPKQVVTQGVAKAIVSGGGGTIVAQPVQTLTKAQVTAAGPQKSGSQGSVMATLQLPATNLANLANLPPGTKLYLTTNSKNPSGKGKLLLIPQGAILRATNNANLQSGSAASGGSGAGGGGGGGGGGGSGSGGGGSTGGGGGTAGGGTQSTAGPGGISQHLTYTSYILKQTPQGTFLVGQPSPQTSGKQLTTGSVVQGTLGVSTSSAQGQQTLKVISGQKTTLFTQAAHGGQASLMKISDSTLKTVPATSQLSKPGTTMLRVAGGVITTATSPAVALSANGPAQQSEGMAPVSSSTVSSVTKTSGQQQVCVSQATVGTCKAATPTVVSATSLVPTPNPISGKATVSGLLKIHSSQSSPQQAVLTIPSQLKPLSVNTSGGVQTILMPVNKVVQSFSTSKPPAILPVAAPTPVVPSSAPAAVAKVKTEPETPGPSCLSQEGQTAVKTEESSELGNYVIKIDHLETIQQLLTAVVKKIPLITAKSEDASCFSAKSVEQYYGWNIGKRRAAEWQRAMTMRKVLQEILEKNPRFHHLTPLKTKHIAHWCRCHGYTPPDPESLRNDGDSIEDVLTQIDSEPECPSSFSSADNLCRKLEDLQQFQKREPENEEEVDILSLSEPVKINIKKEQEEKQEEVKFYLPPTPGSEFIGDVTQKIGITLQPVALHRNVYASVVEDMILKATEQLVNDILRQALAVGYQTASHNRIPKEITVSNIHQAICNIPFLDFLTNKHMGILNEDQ

Histamine H3 receptor = Histamine H3 receptor (Homo sapiens, UniProt Q9Y5N1); test: Selectivity interaction (PSP Principial panel 20118+ (panel of GPCRs, transporter, and ion channels)) EUB0000283b HRH3
Tribbles homolog 2 = Tribbles homolog 2 (Homo sapiens, UniProt Q92519); test: Selectivity interaction (PSP kinase safety panel (Eurofins)) EUB0000283b TRIB2
[3] = target: Muscarinic acetylcholine receptor M2 (Homo sapiens, UniProt P08172); test: Selectivity interaction (PSP Principial panel 20118+ (panel of GPCRs, transporter, and ion channels)) EUB0000283b CHRM2
Acetylcholinesterase = Acetylcholinesterase (Homo sapiens, UniProt P22303); test: Selectivity interaction (PSP Principial panel 20118+ (panel of GPCRs, transporter, and ion channels)) EUB0000283b ACHE
Protein ENL [4] = target: T2, Protein ENL (Homo sapiens, UniProt Q03111); test: Selectivity interaction (BioLayer Interferometry assay (BLI)) EUB0000283b MLLT1
Protein ENL [5] = target: T2, Protein ENL; test: Selectivity interaction (ITC) EUB0000283b MLLT1
[6] = target: Serine/threonine-protein kinase pim-1 (Homo sapiens, UniProt P11309); test: Selectivity interaction (PSP kinase safety panel (Eurofins)) EUB0000283b PIM1
[7] = target: T3, YEATS domain-containing protein 4 (Homo sapiens, UniProt O95619); test: Selectivity interaction (Bromodomain panel (TR-FRET assay)) EUB0000283b YEATS4
[8] = target: Chromatin remodeling regulator CECR2 (Homo sapiens, UniProt Q9BXF3); test: Selectivity interaction (Bromodomain panel (TR-FRET assay)) EUB0000283b CECR2
[9] = target: Vascular endothelial growth factor receptor 2 (Homo sapiens, UniProt P35968); test: Selectivity interaction (Kinase panel (literature or Upstate/Millipore)) EUB0000665a KDR
[10] = target: Protein AF-9 (Homo sapiens) (UniProt P42568)
[11] = target: T1, YEATS domain-containing protein 2; test: Selectivity interaction (Enzyme panel (PDEs, ion channels, and GPCRS, HTRF assay)) EUB0000731a YEATS2
[12] = target: T3, YEATS domain-containing protein 4; test: Selectivity interaction (Enzyme panel (PDEs, ion channels, and GPCRS, HTRF assay)) EUB0000731a YEATS4
Protein AF-9 [13] = target: T4, Protein AF-9 (Homo sapiens, UniProt P42568)
Protein AF-9 [14] = target: T4, Protein AF-9; remark: listed apart in the source
[15] = target: Protein ENL (Homo sapiens) (UniProt Q03111); test: Selectivity interaction (DSF assay) EUB0000731a MLLT1
[16] = target: T5, Adenosine receptor A1 (Homo sapiens) (UniProt P30542); settings: at 10 µM
T5 sequence (whole entry): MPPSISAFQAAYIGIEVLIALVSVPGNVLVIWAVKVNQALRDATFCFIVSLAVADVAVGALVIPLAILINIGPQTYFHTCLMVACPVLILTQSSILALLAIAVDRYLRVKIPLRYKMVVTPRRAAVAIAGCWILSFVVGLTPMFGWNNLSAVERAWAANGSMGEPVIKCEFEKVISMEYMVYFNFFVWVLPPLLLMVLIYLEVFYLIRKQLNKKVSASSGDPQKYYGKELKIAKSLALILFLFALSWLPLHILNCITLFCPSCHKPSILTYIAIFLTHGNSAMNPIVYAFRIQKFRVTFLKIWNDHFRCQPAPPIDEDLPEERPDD

Peregrin (Homo sapiens) = Peregrin (Homo sapiens) (UniProt P55201)
[17] = target: Bromodomain-containing protein 1 (Homo sapiens, UniProt O95696); test: Selectivity interaction (AlphaScreen) EUB0000323b BRD1
[18] = target: Bromodomain and PHD finger-containing protein 3 (Homo sapiens) (UniProt Q9ULD4)
[19] = target: Bromodomain-containing protein 1 (Homo sapiens) (UniProt O95696)
[20] = target: 5-hydroxytryptamine receptor 6 (Homo sapiens) (UniProt P50406); settings: at 10 µM
[21] = target: T6, Adenosine receptor A3 (Homo sapiens) (UniProt P0DMS8); settings: at 10 µM
T6 sequence (whole entry): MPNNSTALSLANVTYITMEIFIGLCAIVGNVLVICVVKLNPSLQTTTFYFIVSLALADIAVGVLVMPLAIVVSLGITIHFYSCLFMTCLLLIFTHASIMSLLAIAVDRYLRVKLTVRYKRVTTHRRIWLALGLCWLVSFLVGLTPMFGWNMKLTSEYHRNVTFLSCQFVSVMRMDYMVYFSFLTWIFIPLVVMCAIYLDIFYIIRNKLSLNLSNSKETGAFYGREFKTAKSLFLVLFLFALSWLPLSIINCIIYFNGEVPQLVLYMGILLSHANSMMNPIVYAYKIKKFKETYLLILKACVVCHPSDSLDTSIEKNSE

[22] = target: Bromodomain-containing protein 4 (Homo sapiens, UniProt O60885)
[23] = target: Kappa-type opioid receptor (Homo sapiens, UniProt P41145); test: Selectivity interaction (CEREP panel (cellular receptors and 30 other enzymes)) EUB0000199c OPRK1
[24] = target: T7, Alpha-1B adrenergic receptor (Homo sapiens, UniProt P35368); test: Selectivity interaction (CEREP panel (cellular receptors and 30 other enzymes)) EUB0000199c ADRA1B
T7 sequence (P35368 whole entry): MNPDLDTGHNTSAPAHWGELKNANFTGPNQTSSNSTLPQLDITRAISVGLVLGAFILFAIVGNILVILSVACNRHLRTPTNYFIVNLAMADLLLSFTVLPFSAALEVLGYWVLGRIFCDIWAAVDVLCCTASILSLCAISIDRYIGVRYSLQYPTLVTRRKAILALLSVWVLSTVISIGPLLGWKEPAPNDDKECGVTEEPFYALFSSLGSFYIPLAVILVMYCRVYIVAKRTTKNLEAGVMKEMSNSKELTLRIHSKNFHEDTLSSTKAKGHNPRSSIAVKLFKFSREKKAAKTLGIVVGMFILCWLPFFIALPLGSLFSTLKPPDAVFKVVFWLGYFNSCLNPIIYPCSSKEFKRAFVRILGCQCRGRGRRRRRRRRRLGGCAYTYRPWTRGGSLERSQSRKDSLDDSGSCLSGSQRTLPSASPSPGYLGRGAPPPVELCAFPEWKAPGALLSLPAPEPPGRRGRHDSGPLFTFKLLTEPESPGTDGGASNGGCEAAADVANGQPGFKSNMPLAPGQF

[25] = target: T8, Alpha-1A adrenergic receptor (Homo sapiens, UniProt P35348); test: Selectivity interaction (CEREP panel (cellular receptors and 30 other enzymes)) EUB0000199c ADRA1A
T8 sequence (P35348 whole entry): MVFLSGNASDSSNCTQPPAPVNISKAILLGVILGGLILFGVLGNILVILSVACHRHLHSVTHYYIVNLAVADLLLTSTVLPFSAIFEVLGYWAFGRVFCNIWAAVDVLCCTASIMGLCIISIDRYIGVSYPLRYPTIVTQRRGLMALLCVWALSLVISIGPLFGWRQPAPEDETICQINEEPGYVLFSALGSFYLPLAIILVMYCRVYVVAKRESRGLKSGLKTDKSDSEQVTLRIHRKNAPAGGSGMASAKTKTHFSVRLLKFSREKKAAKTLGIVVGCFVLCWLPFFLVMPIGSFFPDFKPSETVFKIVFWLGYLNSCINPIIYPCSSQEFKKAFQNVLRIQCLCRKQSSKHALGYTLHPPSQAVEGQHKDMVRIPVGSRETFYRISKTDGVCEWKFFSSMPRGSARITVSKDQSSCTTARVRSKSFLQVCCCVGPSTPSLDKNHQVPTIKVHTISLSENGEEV

[26] = target: 5-hydroxytryptamine receptor 2B (Homo sapiens, UniProt P41595); test: Selectivity interaction (CEREP panel (cellular receptors and 30 other enzymes)) EUB0000199c HTR2B
[27] = target: SWI/SNF-related matrix-associated actin-dependent regulator of chromatin subfamily A member 2 (Homo sapiens) (UniProt P51531); test: Selectivity interaction (Bromodomain panel (DSF assay)) EUB0000199c SMARCA2
[28] = target: T3, YEATS domain-containing protein 4; test: Selectivity interaction (HTRF-based inhibition assay) EUB0000732a YEATS4
[29] = target: T1, YEATS domain-containing protein 2; test: Selectivity interaction (HTRF-based inhibition assay) EUB0000732a YEATS2

T3 sequence (O95619 whole entry, the tested form may be a part): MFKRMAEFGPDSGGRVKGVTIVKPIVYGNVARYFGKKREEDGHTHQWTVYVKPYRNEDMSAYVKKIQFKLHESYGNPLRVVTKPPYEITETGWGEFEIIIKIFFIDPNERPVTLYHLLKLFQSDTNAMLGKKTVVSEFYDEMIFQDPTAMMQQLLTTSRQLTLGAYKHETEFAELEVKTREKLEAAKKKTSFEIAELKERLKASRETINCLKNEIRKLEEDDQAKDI
T4 sequence (P42568 whole entry): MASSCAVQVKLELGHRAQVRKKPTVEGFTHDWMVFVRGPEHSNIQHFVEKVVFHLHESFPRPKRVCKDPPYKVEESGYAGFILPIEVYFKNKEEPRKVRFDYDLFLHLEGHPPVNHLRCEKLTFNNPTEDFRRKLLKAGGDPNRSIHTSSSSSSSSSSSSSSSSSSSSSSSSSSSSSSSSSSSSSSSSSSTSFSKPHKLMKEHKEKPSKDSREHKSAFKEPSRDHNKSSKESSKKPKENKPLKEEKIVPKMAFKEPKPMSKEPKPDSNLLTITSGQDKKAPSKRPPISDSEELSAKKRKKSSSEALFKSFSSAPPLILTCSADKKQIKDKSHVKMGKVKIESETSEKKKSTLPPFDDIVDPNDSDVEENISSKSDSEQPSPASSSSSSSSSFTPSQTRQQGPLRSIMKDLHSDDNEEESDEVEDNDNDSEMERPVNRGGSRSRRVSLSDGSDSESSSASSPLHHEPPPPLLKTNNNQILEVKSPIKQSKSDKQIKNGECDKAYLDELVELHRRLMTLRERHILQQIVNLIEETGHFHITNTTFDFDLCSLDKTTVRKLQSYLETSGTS
T2 sequence (Q03111 whole entry): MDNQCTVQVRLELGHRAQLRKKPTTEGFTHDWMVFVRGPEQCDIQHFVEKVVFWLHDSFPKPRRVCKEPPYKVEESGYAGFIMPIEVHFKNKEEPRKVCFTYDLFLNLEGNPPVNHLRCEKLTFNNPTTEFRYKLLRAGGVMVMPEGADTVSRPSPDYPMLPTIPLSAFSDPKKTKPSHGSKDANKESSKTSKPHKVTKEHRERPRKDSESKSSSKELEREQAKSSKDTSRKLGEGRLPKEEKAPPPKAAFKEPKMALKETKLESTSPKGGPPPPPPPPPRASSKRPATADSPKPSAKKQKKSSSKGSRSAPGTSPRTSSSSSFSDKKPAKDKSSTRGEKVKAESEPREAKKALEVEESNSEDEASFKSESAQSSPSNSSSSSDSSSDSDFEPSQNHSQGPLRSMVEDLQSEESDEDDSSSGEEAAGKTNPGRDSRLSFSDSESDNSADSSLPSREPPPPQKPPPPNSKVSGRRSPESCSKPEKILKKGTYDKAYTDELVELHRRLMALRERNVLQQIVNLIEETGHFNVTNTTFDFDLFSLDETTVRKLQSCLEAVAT
Chain of Muscarinic acetylcholine receptor M2 (P08172 whole entry): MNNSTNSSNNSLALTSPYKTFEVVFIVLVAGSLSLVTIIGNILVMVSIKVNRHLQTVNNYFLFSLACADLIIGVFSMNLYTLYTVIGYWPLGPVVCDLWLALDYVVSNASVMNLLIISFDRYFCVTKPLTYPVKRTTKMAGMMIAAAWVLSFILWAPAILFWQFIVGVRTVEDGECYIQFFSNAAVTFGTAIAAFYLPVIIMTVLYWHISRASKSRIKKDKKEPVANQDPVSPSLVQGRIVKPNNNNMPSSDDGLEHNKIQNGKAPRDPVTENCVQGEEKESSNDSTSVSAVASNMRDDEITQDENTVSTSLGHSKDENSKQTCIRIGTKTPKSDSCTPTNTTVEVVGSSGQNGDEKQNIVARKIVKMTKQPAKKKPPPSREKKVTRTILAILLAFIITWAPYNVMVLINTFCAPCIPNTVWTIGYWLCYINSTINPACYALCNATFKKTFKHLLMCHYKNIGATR
Chain of Bromodomain and PHD finger-containing protein 3 (Homo sapiens) (Q9ULD4 whole entry): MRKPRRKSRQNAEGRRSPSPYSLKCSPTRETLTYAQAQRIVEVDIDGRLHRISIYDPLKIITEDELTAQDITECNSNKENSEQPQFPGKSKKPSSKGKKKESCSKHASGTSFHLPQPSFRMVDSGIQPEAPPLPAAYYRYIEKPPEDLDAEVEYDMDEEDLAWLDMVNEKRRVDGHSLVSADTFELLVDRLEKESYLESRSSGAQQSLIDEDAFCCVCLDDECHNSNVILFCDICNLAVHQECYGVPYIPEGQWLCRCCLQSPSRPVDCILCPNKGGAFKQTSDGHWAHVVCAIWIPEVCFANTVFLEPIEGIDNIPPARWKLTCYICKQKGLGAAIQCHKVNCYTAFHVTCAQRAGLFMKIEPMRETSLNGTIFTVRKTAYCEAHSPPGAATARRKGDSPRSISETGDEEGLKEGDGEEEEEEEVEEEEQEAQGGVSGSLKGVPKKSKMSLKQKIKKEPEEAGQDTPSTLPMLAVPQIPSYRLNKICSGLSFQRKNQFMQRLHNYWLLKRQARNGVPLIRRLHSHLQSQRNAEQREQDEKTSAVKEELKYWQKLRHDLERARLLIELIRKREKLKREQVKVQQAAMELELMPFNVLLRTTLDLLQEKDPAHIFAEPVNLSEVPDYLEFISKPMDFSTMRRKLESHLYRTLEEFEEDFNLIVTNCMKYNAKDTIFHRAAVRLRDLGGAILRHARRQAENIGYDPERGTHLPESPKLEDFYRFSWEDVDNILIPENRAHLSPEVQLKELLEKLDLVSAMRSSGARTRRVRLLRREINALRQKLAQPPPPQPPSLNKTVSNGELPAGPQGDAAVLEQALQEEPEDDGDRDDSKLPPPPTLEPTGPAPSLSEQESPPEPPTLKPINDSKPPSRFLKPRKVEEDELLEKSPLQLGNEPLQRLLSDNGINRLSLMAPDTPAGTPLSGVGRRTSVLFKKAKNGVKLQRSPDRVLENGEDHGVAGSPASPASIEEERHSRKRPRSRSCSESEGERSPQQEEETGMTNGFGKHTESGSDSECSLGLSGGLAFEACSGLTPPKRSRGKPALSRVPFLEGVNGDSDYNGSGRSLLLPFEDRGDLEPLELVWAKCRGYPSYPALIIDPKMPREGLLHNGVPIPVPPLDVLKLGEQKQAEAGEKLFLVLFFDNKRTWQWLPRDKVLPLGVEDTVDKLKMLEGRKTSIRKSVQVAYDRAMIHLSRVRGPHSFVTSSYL
Chain of Acetylcholinesterase (P22303 whole entry): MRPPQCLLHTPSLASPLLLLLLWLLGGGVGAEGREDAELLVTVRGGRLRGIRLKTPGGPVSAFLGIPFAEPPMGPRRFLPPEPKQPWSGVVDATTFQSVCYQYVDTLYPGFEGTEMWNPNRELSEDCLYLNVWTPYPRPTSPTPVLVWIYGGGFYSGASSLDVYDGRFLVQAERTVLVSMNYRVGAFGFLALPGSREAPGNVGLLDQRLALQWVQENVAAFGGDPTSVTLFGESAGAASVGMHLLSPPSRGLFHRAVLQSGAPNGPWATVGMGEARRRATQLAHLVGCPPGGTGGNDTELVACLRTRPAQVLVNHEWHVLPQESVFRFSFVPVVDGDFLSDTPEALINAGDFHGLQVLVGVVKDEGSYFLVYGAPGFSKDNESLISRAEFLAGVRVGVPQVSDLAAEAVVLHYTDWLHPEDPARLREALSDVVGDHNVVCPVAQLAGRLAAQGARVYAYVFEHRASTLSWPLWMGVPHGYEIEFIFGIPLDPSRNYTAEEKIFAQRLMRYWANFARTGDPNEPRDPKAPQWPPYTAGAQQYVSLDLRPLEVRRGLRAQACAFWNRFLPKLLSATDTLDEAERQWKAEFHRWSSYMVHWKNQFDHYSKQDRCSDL
Chain of Protein AF-9 (Homo sapiens) (P42568 whole entry, the tested form may be a part): as the sequence (P42568 whole entry) above
Chain of Protein ENL (Homo sapiens) (Q03111 whole entry): as the sequence (Q03111 whole entry) above
Chain of 5-hydroxytryptamine receptor 6 (Homo sapiens) (P50406 whole entry): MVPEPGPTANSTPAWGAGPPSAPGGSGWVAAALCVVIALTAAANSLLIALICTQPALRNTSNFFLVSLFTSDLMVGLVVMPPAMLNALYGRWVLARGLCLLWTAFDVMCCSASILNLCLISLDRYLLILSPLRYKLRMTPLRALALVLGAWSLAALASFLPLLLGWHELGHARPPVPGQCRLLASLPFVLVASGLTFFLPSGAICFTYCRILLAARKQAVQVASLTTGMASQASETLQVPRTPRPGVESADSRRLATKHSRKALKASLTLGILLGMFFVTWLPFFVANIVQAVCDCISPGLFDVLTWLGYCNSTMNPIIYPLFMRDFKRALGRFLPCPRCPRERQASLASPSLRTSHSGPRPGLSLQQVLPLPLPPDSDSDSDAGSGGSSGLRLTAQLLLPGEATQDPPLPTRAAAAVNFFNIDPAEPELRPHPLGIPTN
Chain of Serine/threonine-protein kinase pim-1 (P11309 whole entry, the tested form may be a part): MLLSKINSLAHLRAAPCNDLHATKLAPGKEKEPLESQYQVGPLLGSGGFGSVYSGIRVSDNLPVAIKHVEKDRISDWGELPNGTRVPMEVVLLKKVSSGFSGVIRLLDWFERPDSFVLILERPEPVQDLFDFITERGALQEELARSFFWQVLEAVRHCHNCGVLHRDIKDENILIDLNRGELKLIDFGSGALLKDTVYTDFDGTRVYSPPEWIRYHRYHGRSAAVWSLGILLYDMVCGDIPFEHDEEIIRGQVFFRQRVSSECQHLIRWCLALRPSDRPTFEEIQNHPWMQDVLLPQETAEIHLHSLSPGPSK
Chain of Tribbles homolog 2 (Q92519 whole entry): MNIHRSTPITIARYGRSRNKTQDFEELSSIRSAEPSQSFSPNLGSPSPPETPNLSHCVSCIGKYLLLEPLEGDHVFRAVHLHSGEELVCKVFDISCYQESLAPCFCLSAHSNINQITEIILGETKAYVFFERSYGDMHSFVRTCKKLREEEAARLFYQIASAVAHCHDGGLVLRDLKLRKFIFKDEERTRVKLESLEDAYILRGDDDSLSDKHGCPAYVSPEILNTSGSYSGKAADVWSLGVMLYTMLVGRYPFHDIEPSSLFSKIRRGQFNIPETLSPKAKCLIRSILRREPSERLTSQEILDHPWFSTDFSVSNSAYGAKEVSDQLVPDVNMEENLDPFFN

SMILES: C[C@H]1CCCN1Cc1nc2cc(NC(=O)c3ccc4cnccc4c3)ccc2[nH]1
IC50 [1]: 8.7 µM
IC50 [2]: > 20 µM
IC50 (Histamine H3 receptor): 0.29 µM
IC50 (Tribbles homolog 2): 3.5 µM
IC50 [3]: 1.8 µM
IC50 (Acetylcholinesterase): 0.25 µM
Kd (Protein ENL [4]): 0.075 µM
Kd (Protein ENL [5]): 0.109 µM
IC50 [6]: 8.6 µM
IC50 [7]: > 20 µM
IC50 [8]: > 40 µM

IC50 [9]: 0.008 µM
SMILES: Cn1cc(-c2[nH]c3cc(NC(=O)[C@H](N)C4CCCCC4)cc4c3c2C=NNC4=O)cn1

dTm [10]: 5.13 K
IC50 [11]: > 40 µM
IC50 [12]: > 40 µM
Kd (Protein AF-9 [13]): 0.11 µM
Kd (Protein AF-9 [14]): 0.076 µM
dTm [15]: 3.61 K
SMILES: CN(C)C(=O)c1ccc(-c2cc(C(=O)N[C@@H]3CCc4ccccc43)no2)cc1O

% of inhibition [16]: 82%
dTm (Peregrin (Homo sapiens)): 6.5 K
IC50 [17]: 2.2 µM
dTm [18]: 3.3 K
dTm [19]: 3.1 K
% of inhibition [20]: 54%
% of inhibition [21]: 53%
dTm [22]: 2.1 K
SMILES: COc1cc2c(cc1NS(=O)(=O)c1ccc(Br)cc1C)n(C)c(=O)n2C

IC50 [23]: 13 µM
IC50 [24]: 3.6 µM
IC50 [25]: 0.44 µM
IC50 [26]: 4 µM
dTm [27]: 9.2 K
SMILES: O=C(/C=C/N1C[C@H]2C[C@@H]1CN2c1ccccn1)c1ccccc1O

IC50 [28]: > 30 µM
IC50 [29]: > 30 µM
SMILES: CN(C)C(=O)c1ccc(-c2cc(C(=O)N(C)C3CCCC3)no2)cc1O
